What was measured:
Type in all cases: biochemical
[1] = molecular target: T1, Saccharose Synthase (Solanum tuberosum, UniProt P10691); assay: acceptance of different NDP's in saccharose splitting; details: NDP 1.6 mM, saccharose 500 mM, 0.035 U enzyme, pH 7.6, 30° C.
T1 construct: made in house; host or cells: Saccharomyces cerevisiae strain 22574d, plasmid pDRSuSy (pDR195, proton-ATPase promoter)
Description: Initially the acceptance of the recombinant saccharose synthase for different NDP's in saccharose splitting was investigated. The reaction conditions was as follows: [table] The reactions with different NDP's were carried out at a temperature of 30° C.

[2] = molecular target: T1, Saccharose Synthase; assay: Michaelis-Menten-Kinetics of saccharose splitting with UDP; details: UDP 1.6 mM, 14 mU enzyme, pH 7.6, 30° C., 10 minutes
Description: In addition, the Michaelis-Menten-Kinetics of the saccharose splitting with the recombinant saccharose synthase with UDP as a function of saccharose was determined.
The reaction condition for this were as follows:
The reactions were carried out at a temperature of 30° C.; the reaction time amounted in each case to 10 minutes.
In FIG. 5, the Michaelis-Menten-Kinetics of saccharose synthase as a function of saccharose concentration is shown. […] The concentrations of more than 600 mM saccharose substrate excess limiting sets in.

[3] = molecular target: T1, Saccharose Synthase; assay: splitting of disaccharides with UDP; details: disaccharide 250 mM, UDP 2 mM, 24 hours at 30° C.
Description: For the synthase of UDP-2-Desoxyglucose and UDP-N-Acetylglucoseamine, the following reaction composition is used. [table] The reaction mixture is incubated for 24 hours at 30° C. and the reaction stopped at 95° over a period of 5 minutes.

T1 sequence (P10691 whole entry): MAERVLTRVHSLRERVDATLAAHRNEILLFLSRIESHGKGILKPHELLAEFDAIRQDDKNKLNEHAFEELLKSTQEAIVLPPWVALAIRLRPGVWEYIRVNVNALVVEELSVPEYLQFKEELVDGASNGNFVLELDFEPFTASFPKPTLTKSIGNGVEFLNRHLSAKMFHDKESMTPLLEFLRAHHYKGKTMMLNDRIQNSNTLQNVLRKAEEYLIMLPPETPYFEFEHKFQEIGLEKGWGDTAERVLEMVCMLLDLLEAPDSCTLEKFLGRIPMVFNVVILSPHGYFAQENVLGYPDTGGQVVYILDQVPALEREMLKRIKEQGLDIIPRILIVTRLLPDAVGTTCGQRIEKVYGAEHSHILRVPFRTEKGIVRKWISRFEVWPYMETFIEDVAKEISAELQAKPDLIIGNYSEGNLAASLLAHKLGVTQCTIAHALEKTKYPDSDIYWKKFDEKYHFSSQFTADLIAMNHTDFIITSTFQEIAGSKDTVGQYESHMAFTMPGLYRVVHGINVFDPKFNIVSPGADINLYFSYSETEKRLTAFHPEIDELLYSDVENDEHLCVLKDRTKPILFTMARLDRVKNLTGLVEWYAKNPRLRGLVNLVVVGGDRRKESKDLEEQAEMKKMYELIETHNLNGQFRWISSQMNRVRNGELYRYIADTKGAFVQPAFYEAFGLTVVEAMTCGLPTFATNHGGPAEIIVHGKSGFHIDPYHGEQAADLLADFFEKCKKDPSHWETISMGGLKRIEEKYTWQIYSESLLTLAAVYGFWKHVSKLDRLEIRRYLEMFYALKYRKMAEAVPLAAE

acceptance of NDP's in saccharose splitting as a function of reaction time (sequence) [1] | other results | Molecule
UDP>ADP=TDP>CDP>GDP |  | Nc1ncnc2c1ncn2[C@@H]1O[C@H](COP(=O)(O)OP(=O)(O)O)[C@@H](O)[C@H]1O [ADP]
UDP>ADP=TDP>CDP>GDP |  | Nc1ccn([C@@H]2O[C@H](COP(=O)(O)OP(=O)(O)O)[C@@H](O)[C@H]2O)c(=O)n1 [CDP]
UDP>ADP=TDP>CDP>GDP |  | Nc1nc2c(ncn2[C@@H]2O[C@H](COP(=O)(O)OP(=O)(O)O)[C@@H](O)[C@H]2O)c(=O)[nH]1 [GDP]
UDP>ADP=TDP>CDP>GDP |  | Cc1cn([C@H]2C[C@H](O)[C@@H](COP(=O)(O)OP(=O)(O)O)O2)c(=O)[nH]c1=O [TDP]
UDP>ADP=TDP>CDP>GDP |  | O=c1ccn([C@@H]2O[C@H](COP(=O)(O)OP(=O)(O)O)[C@@H](O)[C@H]2O)c(=O)[nH]1 [UDP]
 | Km [2]: 66 mM; saccharose concentration at which substrate excess limiting sets in [2]: more than 600 mM | OC[C@H]1O[C@@](CO)(O[C@H]2O[C@H](CO)[C@@H](O)[C@H](O)[C@H]2O)[C@@H](O)[C@@H]1O [saccharose]
 | disaccharide split off ([3]; 0.11 U saccharose synthase): 5.9% | OC[C@H]1OC(CO)(O[C@@H]2C[C@@H](O)[C@H](O)[C@@H](CO)O2)[C@@H](O)[C@@H]1O (stereo partly drawn) [two desoxy saccharose, 2-desoxysaccharose]
 | disaccharide converted ([3]; 1.25 U of the enzyme): 12.4% | N-acetyl saccharosamine

— US6444454B1, “Method for increasing the gene expression of saccharose synthase” (Forschungszentrum Julich GmbH, priority 1997, dated 2002)
